Patent US6548552B1 (priority 1997, dated 2003)

Assays:
Type in all cases: cell-based
[1] = system: TSST-1 production by S. aureus
S. aureus = system: S. aureus
Prevotella bivia = system: Prevotella bivia
[2] = system: Peptostreptococcus anaerobius
Vaginal Microflora = system: Vaginal Microflora

Molecule: Cn1c(=O)c2c(ncn2C)n(C)c1=O [Caffeine, caffeine]
- effect on bacterial toxin production (in words) [1]: reduced toxin production
- OD540 (Percentage of Control) (S. aureus): 93 Percentage of Control

Molecule: potassium bisulfite
- OD540 (Percentage of Control) (S. aureus): 91 Percentage of Control

Molecule: O=C1O[C@H]([C@@H](O)CO)C(O)=C1O [Ascorbic acid, ascorbic acid]
- effect on bacterial toxin production (in words) [1]: reduced toxin production
- reduction of toxin production [1]: up to 40%
- OD540 (Percentage of Control) (S. aureus): 104 Percentage of Control
- Staphylococcal / bacterial growth (inhibition, in words) (S. aureus): does not inhibit Staphylococcal growth

Molecule: sodium bisulfite
- OD540 (Percentage of Control) (S. aureus): 64 Percentage of Control

Molecule: thiodipropionic acid
- OD540 (Percentage of Control) (S. aureus): 99 Percentage of Control

Molecule: CCCOC(=O)c1cc(O)c(O)c(O)c1 [Propylgallate, propyl gallate]
- OD540 (Percentage of Control) (S. aureus): 74 Percentage of Control

Molecule: N[C@@H](CS)C(=O)O [Cysteine, cysteine]
- effect on bacterial toxin production (in words) [1]: reduced toxin production
- OD540 (Percentage of Control) (S. aureus): 105 Percentage of Control

Molecule: CCCCCCCCCCCC(=O)OCCOCCOCCOCCOCCOCCOCCOCCOCCOCCOCCOCCOCCOCCOCCOCCOCCOCCOCCOCCOCC(OCCOCCOCCOCCOCCOCCOCCOCCOCCOCCOCCOCCOCCOCCOCCOCCOCCOCCOCCOCCO)C1OCC(OCCOCCOCCOCCOCCOCCOCCOCCOCCOCCOCCOCCOCCOCCOCCOCCOCCOCCOCCOCCO)C1OCCOCCOCCOCCOCCOCCOCCOCCOCCOCCOCCOCCOCCOCCOCCOCCOCCOCCOCCOCCO (centres unmarked) [Polysorbate 20]
- growth of P. bivia (Prevotella bivia): suppressed
- growth of P. anaerobius [2]: suppressed

Molecule: OCC(O)CO [glycerin]
- growth of P. bivia (Prevotella bivia): inhibited
- growth of the isolates tested (Vaginal Microflora): did not effect the growth

Molecule: delta-tocopherol
- OD540 (Percentage of Control) (S. aureus): 112 Percentage of Control

Molecule: beta-mercaptoethanol
- OD540 (Percentage of Control) (S. aureus): 93 Percentage of Control

Molecule: CC(=O)N[C@@H](CS)C(=O)O [N-acetyl cysteine, N-acetylcysteine]
- effect on bacterial toxin production (in words) [1]: reduced toxin production
- OD540 (Percentage of Control) (S. aureus): 89 Percentage of Control
